We go through three compounds from patent publication US12539335B2, “Tricyclic polypeptide conjugated drug and use thereof” (CONJUSTAR (ZHUHAI) BIOLOGICS CO., LTD., priority 2021, dated 2026).

Counter-ions that a name gives are not always drawn. Starred links: 1 amine or outer side, 2 acyl side, 3 side chain; linkers in the order of their positions; H or OH if unused. Positions of bridges follow the written chain, without caps; N, C: chain ends. Non-standard residues stand in square brackets, D forms with d. Residues, ends and D or L forms follow the SMILES beside them. Chains are numbered I, II in the order given. *: point of attachment. TATA = O=C(CC[*:1])N1CN(C(=O)CC[*:2])CN(C(=O)CC[*:3])C1; Dolaproine = CO[C@@H]([C@@H]1CCCN1)[C@@H](C)C(=O)O; Dil = CC[C@H](C)[C@H](NC)[C@@H](CC(=O)O)OC; 1Nal = N[C@@H](Cc1cccc2ccccc12)C(=O)O; X2 = O=C(CCCC(=O)[*:2])NCCC(=O)[*:1]; PABC = O=C(OCc1ccc(N[*:1])cc1)[*:2]; X1 = C[C@@H](N*)[C@@H](O)c1ccccc1; Hyp = O=C(O)[C@@H]1C[C@@H](O)CN1; hArg = N=C(N)NCCCC[C@H](N)C(=O)O; Cit = NC(=O)NCCC[C@H](N)C(=O)O; Pen = CC(C)(S)[C@H](N)C(=O)O; NMeV = CN[C@H](C(=O)O)C(C)C; hCys = N[C@@H](CCS)C(=O)O; Sar = CNCC(=O)O

A short description of data set [1]: Pharmacokinetic analysis in rat plasma. The class given is in vivo, SD rats. Here is the method:
Test Example 5: Pharmacokinetic Analysis of the Compounds of the Present Invention in Rat Plasma
To test the pharmacokinetics of the compounds of the present invention in SD rats.
(§1) The pharmacokinetic characteristics of the compound after intravenous injection were tested in rats according to a standard protocol. The compound to be tested was formulated into a clear solution using 25 mM L-histidine (pH=7) in 10% sucrose as a vehicle. Two rats were given a single intravenous injection of 3 mg/kg of the compound to be tested. Whole blood was collected at time points of 0.083, 0.25, 0.5, 1, 2, 4, 8, and 24 hours after administration to get plasma. The concentration of the compound of the present invention and the concentration of its potential metabolite MMAE were analyzed by the LC-MS/MS method, and the pharmacokinetic parameters were calculated by Phoenix WinNonlin software.

Data set [2] can be described thus: Pharmacokinetic analysis in Cynomolgus macaque plasma. The class given is in vivo. Conditions: Cynomolgus macaques, single IV 1 mg/kg of the compound. The protocol: Test Example 6: Pharmacokinetic Analysis in Cynomolgus Macaque Plasma
To test the pharmacokinetics of the compounds of the present invention in Cynomolgus macaques.
as §1, with “tested” for “tested in rats”, “standard protocol in Cynomolgus macaques.” for “standard protocol.”, “vehicle. Cynomolgus macaques” for “vehicle. Two rats”, “of 1” for “of 3”, “compound to be tested” for “compound of the present invention”

For a further data set, the target named is T1, Human Nectin-4 (Homo sapiens, UniProt Q96NY8).
T1 construct: purchased GE Healthcare 1006-72
T1 sequence (Q96NY8 32-510): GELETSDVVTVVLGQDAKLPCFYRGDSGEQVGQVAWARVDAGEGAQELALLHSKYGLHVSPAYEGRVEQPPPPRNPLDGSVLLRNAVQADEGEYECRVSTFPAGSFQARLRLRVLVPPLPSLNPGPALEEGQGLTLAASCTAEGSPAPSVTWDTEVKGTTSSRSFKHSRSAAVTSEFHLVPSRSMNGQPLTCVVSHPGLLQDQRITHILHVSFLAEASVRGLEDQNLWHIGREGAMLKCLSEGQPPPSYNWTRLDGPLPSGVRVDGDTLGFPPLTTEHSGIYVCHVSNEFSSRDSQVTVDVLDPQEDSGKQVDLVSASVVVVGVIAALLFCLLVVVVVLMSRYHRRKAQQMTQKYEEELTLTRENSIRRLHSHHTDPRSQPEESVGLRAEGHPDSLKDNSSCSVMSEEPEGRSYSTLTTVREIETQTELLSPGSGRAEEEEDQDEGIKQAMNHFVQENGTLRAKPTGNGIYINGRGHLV
Put plainly: Binding capacity to Nectin-4 protein (SPR, Biacore 8K). The protocol:
Test Example 1. Binding Capacity Test of the Compounds of the Present Invention to Nectin-4 Protein
To detect the affinity of the compound to be tested to the target protein Nectin-4 using the SPR method.
• Biacore 8K (GE Healthcare) • 96-well Plate (Cat #650101, greiner bio-one) • CM5 chip (Cat #BR-1005-30, GE Healthcare) • Amine Coupling Kit (Cat #BR-1000-50, GE Healthcare) • EDC • NHS • 1 M ethanolamine • 10 mM sodium acetate pH 4.5 (Cat #BR-1003-50, GE Healthcare) • DMSO (Cat #D4540, Sigma) • P20 (Cat #BR-1000-54, GE Healthcare) • PBS (Cat #BR-1006-72, GE Healthcare) • Nectin-4 (Cat #1006-72, GE Healthcare) 3. Experimental Protocol
In this experiment, the amino coupling method was used. The target protein Nectin-4 was directly immobilized on the CM5 chip using Biacore 8K. […] The final data were subjected to Kinetics fitting analysis based on a 1:1 model using Biacore Insight Evaluation Software (V 2.0.15.12933).
1) Preparation of the buffer: 10 mM PBS, pH 7.4, 137 mM NaCl, 2.7 mM KCl, 5% DMSO, and 0.05% P20.
2) Activation of the CM5 chip: The CM5 chip was activated with 400 mM EDC and 100 mM NHS at a flow rate of 10 μL/min for 420 seconds.
3) Coupling of the target protein: The target protein was diluted to 10 μg/mL with 10 mM sodium acetate (pH 4.5) and coupled at a flow rate of 10 μL/min for 284 s. The 1 #, 2 #, and 3 #channels on the chip were used in the experiment, and the coupling results were 1639.9RU, 1747.8RU, and 1702.2RU, respectively.
4) Blocking of the CM5 chip: The CM5 chip was blocked with 1 M ethanolamine at a flow rate of 10 μL/min for 420 seconds.
5) Analyte concentration: The compound to be tested was diluted with the buffer. The compound to be tested was diluted from 100 nM to 0.78 nM in a 2-fold gradient.
6) Sample injection analysis: Each concentration of the working solution of the compound to be tested corresponded to one cycle, with a flow rate of 30 μL/min for binding for 180 seconds and dissociating for 180 seconds. The last cycle was a 5% DMSO solvent correction cycle.
7) All results were subjected to kinetics fitting analysis based on a 1:1 model. […]
(In SPR one partner is held on a chip, and binding of the other changes the refractive index at the surface.)

Setting [3] is: metabolite MMAE in SD rat plasma after single IV 3 mg/kg acetate salt of PDC_2.

For `CC[C@H](C)[C@@H]([C@@H](CC(=O)N1CCC[C@H]1[C@H](OC)[C@@H](C)C(=O)N[C@H](C)[C@@H](O)c1ccccc1)OC)N(C)C(=O)[C@@H](NC(=O)[C@@H](NC)C(C)C)C(C)C` [MMAE, monomethyl auristatin E] (H-[NMeV]V[Dil][Dolaproine]-X1), the “exposure of metabolite MMAE relative to exposure of the compound” value in data set [1] (SD rats, single IV 3 mg/kg) is recorded as “about 1/40”. Moreover, in data set [1] (setting [3]), the AUC0-last came to 0.11 µM·h and the Cmax came out at 70 nM. Also, the “MMAE release in blood” value in data set [2] is reported as “lower MMAE release in blood than a detection limit”.

Consider `CC[C@H](C)[C@@H]([C@@H](CC(=O)N1CCC[C@H]1[C@H](OC)[C@@H](C)C(=O)N[C@H](C)[C@@H](O)c1ccccc1)OC)N(C)C(=O)[C@@H](NC(=O)[C@H](C(C)C)N(C)C(=O)OCc1ccc(NC(=O)[C@H](CCCNC(N)=O)NC(=O)[C@@H](NC(=O)CCCC(=O)NCCC(=O)N(C)CC(=O)N(C)CC(=O)N(C)CC(=O)N(C)CC(=O)N(C)CC(=O)N(C)CC(=O)N(C)CC(=O)N(C)CC(=O)N(C)CC(=O)N(C)CC(=O)N[C@H]2CCCCNC(=O)C[C@@H](C(=O)N[C@H]3CSCCC(=O)N4CN5CN(C4)C(=O)CCSC(C)(C)[C@H](NC(=O)[C@@H](CC(=O)O)NC(=O)[C@H](Cc4cccc6ccccc46)NC(=O)[C@@H]4CCCN4C3=O)C(=O)N[C@@H](CCSC)C(=O)N[C@@H](CCCCNC(=N)N)C(=O)N[C@@H](CC(=O)O)C(=O)N[C@@H](Cc3c[nH]c4ccccc34)C(=O)N[C@@H](CO)C(=O)N[C@@H]([C@@H](C)O)C(=O)N3CCC[C@H]3C(=O)N3C[C@H](O)C[C@H]3C(=O)N[C@@H](Cc3c[nH]c4ccccc34)C(=O)N[C@H](C(N)=O)CSCCC5=O)NC(=O)[C@H](CCCCNC(=N)N)NC2=O)C(C)C)cc1)C(C)C` [Acetate salt of PDC_1] (I: [Sar][Sar][Sar][Sar][Sar][Sar][Sar][Sar][Sar][Sar]K[hArg]DCP[1Nal][dD][Pen]M[hArg]DWSTP[Hyp]WC-NH2 / II: V[Cit][PABC][NMeV]V[Dil][Dolaproine]-X1; lactam I:11-I:13; linker I:14-I:18-I:28 via TATA; linker I:N-II:N via X2), for which, at Human Nectin-4, the affinity, expressed as Kd, was 1.4 nM.

On to `CC[C@H](C)[C@@H]([C@@H](CC(=O)N1CCC[C@H]1[C@H](OC)[C@@H](C)C(=O)N[C@H](C)[C@@H](O)c1ccccc1)OC)N(C)C(=O)[C@@H](NC(=O)[C@H](C(C)C)N(C)C(=O)OCc1ccc(NC(=O)[C@H](CCCNC(N)=O)NC(=O)[C@@H](NC(=O)CCCC(=O)NCCC(=O)N(C)CC(=O)N(C)CC(=O)N(C)CC(=O)N(C)CC(=O)N(C)CC(=O)N(C)CC(=O)N(C)CC(=O)N(C)CC(=O)N(C)CC(=O)N(C)CC(=O)N[C@H]2CCCCNC(=O)C[C@@H](C(=O)N[C@H]3CSCCC(=O)N4CN5CN(C4)C(=O)CCSC(C)(C)[C@H](NC(=O)[C@@H](CC(=O)O)NC(=O)[C@H](Cc4cccc6ccccc46)NC(=O)[C@@H]4CCCN4C3=O)C(=O)N[C@@H](CCSC)C(=O)N[C@@H](CCCCNC(=N)N)C(=O)N[C@@H](CC(=O)O)C(=O)N[C@@H](Cc3c[nH]c4ccccc34)C(=O)N[C@@H](CO)C(=O)N[C@@H]([C@@H](C)O)C(=O)N3CCC[C@H]3C(=O)N3C[C@H](O)C[C@H]3C(=O)N[C@@H](Cc3c[nH]c4ccccc34)C(=O)N[C@H](C(N)=O)CCSCCC5=O)NC(=O)CN(C)C2=O)C(C)C)cc1)C(C)C` [Acetate salt of PDC_3] (I: [Sar][Sar][Sar][Sar][Sar][Sar][Sar][Sar][Sar][Sar]K[Sar]DCP[1Nal][dD][Pen]M[hArg]DWSTP[Hyp]W[hCys]-NH2 / II: V[Cit][PABC][NMeV]V[Dil][Dolaproine]-X1; lactam I:11-I:13; linker I:14-I:18-I:28 via TATA; linker I:N-II:N via X2), for which the dissociation constant (Kd) at Human Nectin-4 is 4.13 nM.

For orientation: Cmax means the maximum level reached in the sampled fluid or tissue. For orientation: Kd means the equilibrium constant for the complex coming apart. The low end stands for higher affinity, the high end for lower affinity.
